Test results published in the supplement of paper PMC10307832.

How the values were obtained:
Experiment in all cases: relative viability (nuclei count vs DMSO), 5 days (fraction); higher = more cells survive
[1] = compound: O=C(Nc1cccc(C(F)(F)F)c1)Nc1cc(S(=O)(=O)NC2CC2)ccc1-c1ccsc1 [AGI-6780] + CC1(C)CCC(c2ccc(Cl)cc2)=C(CN2CCN(c3ccc(C(=O)NS(=O)(=O)c4ccc(N[C@H](CCN5CCOCC5)CSc5ccccc5)c(S(=O)(=O)C(F)(F)F)c4)cc3)CC2)C1 [Navitoclax] (partner 0.5 µM)
Summary of the method: (§1)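 Medians of duplicate plates are given as relative viability. That measure is the nuclei count in treated wells divided by the count in vehicle wells. Counts were taken on 4× images of lung cancer cell lines in 1536-well plates, 5 days after pin-tool dosing the day after seeding with one drug alone or a fixed anchor-drug dose plus five library-drug doses (not always all listed) in √10 steps.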

[2] = compound: O=C(Nc1cccc(C(F)(F)F)c1)Nc1cc(S(=O)(=O)NC2CC2)ccc1-c1ccsc1 [AGI-6780] + C[C@@H](Oc1cc(-c2cnn(C3CCNCC3)c2)cnc1N)c1c(Cl)ccc(F)c1Cl [Crizotinib] (partner 1 µM)
Summary of the method: as §1

[3] = compound: O=C(Nc1cccc(C(F)(F)F)c1)Nc1cc(S(=O)(=O)NC2CC2)ccc1-c1ccsc1 [AGI-6780] + Cc1cc(Nc2cc(N3CCN(C)CC3)nc(Sc3ccc(NC(=O)C4CC4)cc3)n2)n[nH]1 [Tozasertib] (partner 0.1 µM)
Summary of the method: as §1

[4] = compound: O=C(Nc1cccc(C(F)(F)F)c1)Nc1cc(S(=O)(=O)NC2CC2)ccc1-c1ccsc1 [AGI-6780] + O=C(CCCCCCC(=O)Nc1ccccc1)NO [Vorinostat] (partner 1 µM)
Summary of the method: as §1

Cell Line	relative viability ([1]; first compound 0.08 µM)	relative viability ([1]; first compound 0.253 µM)	relative viability ([1]; first compound 0.8 µM)	relative viability ([1]; first compound 2.53 µM)	relative viability ([1]; first compound 8 µM)	relative viability ([2]; first compound 0.08 µM)	relative viability ([2]; first compound 0.253 µM)	relative viability ([2]; first compound 0.8 µM)	relative viability ([2]; first compound 2.53 µM)	relative viability ([2]; first compound 8 µM)	relative viability ([3]; first compound 0.08 µM)	relative viability ([3]; first compound 0.253 µM)	relative viability ([3]; first compound 0.8 µM)	relative viability ([3]; first compound 2.53 µM)	relative viability ([3]; first compound 8 µM)	relative viability ([4]; first compound 0.08 µM)	relative viability ([4]; first compound 0.253 µM)	relative viability ([4]; first compound 0.8 µM)	relative viability ([4]; first compound 2.53 µM)	relative viability ([4]; first compound 8 µM)
NCI-H1651	1.04	1.13	1.01	0.912	0.906	0.821	0.902	0.898	0.878	0.879	0.785	0.601	0.591	0.429	0.693	0.481	0.568	0.509	0.545	0.661
LU99A	0.786	0.842	0.823	0.741	0.809	0.606	0.484	0.627	0.473	0.669	0.237	0.275	0.294	0.237	0.299	0.568	0.461	0.502	0.335	0.466
LC-2-ad	0.552	0.468	0.505	0.249	0.659	0.579	0.491	0.467	0.412	0.508	0.433	0.477	0.447	0.327	0.468	0.754	0.72	0.776	0.661	0.726
NCI-H1975	1.15	1	1.1	1.02	1.03	1.07	1.05	0.965	1.02	0.876	0.9	0.819	0.738	–	0.474	0.711	0.742	0.66	0.697	0.694
NCI-H322M	1.11	1.14	1.28	1.24	1.21	0.785	0.861	1.02	0.986	0.858	0.517	0.508	0.493	0.425	0.515	–	0.956	1.03	0.855	0.855
NCI-H1666	0.985	0.894	0.909	–	0.92	1.09	0.897	1.03	–	1.05	0.603	0.616	0.611	0.503	0.563	1.01	0.996	1.04	0.902	1.06
EKVX	1.02	0.879	0.935	0.717	0.978	0.904	0.813	1.15	0.888	1.07	0.349	0.39	0.412	0.335	0.366	0.827	0.686	0.752	0.721	0.614
NCI-H1355	1.01	1.05	0.984	0.932	0.946	1.04	1.02	1.08	0.943	1.01	0.594	0.575	0.562	0.41	0.45	0.696	0.724	0.671	0.569	0.687
PC-3 [JPC-3]	0.898	0.872	0.77	0.752	0.774	1.01	0.928	0.971	0.994	0.977	0.943	0.859	0.94	0.858	0.813	–	0.866	1.08	0.967	0.731
UMC-11	0.318	0.372	0.348	–	0.399	0.754	0.606	0.676	–	0.751	0.197	0.198	0.206	–	0.192	0.407	0.426	0.447	–	0.434
NCI-H460	1.14	1.03	1.04	1.14	1.14	0.912	0.963	1.19	0.759	1.06	0.537	0.453	0.491	0.349	0.176	0.787	0.678	0.779	0.658	0.659
NCI-H727	0.493	0.448	0.474	0.369	0.494	0.887	0.702	0.842	0.844	0.843	0.583	0.568	0.669	0.722	0.681	1.16	1.01	1.15	1.13	1.16
SK-MES-1	1.31	1.22	1.09	1.21	1.28	0.942	0.964	0.935	0.871	0.953	1.02	0.961	1	0.88	0.747	1.21	1.17	1	1.03	0.994
NCI-H1915	0.818	0.781	0.746	0.808	0.738	0.885	0.88	0.902	0.857	0.835	0.432	0.418	0.469	0.282	0.428	0.563	0.538	0.516	0.468	0.482
ChaGo-K-1	0.894	1.25	1.15	0.746	0.992	1.18	1.06	1.43	0.959	1.14	0.238	0.229	0.221	0.197	0.222	0.727	0.787	0.745	0.63	0.825
NCI-H1437	1.19	1.06	1.12	1.07	0.966	0.974	0.87	0.922	0.965	0.916	0.486	0.42	0.428	0.408	0.391	0.818	0.856	0.827	0.751	0.636
